According to PubChem BioAssay (NCI):
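In this assay, cells in 96-well plates receive the compound at five concentrations for 48 hours. Endpoints are linearly interpolated between the surrounding concentrations. GI50 is the concentration that inhibits growth by half. At the TGI there is no net growth.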

Tests used:
Test in all cases: NCI tumour cell line growth inhibition, 48 h
SK-MEL-5 melanoma = system: SK-MEL-5 melanoma
786-0 renal = system: 786-0 renal
OVCAR-3 ovarian = system: OVCAR-3 ovarian
OVCAR-8 ovarian = system: OVCAR-8 ovarian
NCI-H522 lung = system: NCI-H522 lung
HCC-2998 colon = system: HCC-2998 colon
UO-31 renal = system: UO-31 renal
HT29 colon = system: HT29 colon
CCRF-CEM leukemia = system: CCRF-CEM leukemia
NCI-H460 lung = system: NCI-H460 lung
CAKI-1 renal = system: CAKI-1 renal
A549 NSCLC = system: A549 NSCLC
RXF 393 renal = system: RXF 393 renal
OVCAR-5 ovarian = system: OVCAR-5 ovarian
SNB-19 CNS = system: SNB-19 CNS
LOX IMVI melanoma = system: LOX IMVI melanoma
RPMI-8226 leukemia = system: RPMI-8226 leukemia
HOP-62 NSCLC = system: HOP-62 NSCLC
SF-268 CNS = system: SF-268 CNS
U251 CNS = system: U251 CNS
NCI/ADR-RES ovarian = system: NCI/ADR-RES ovarian
SW-620 colon = system: SW-620 colon
IGROV1 ovarian = system: IGROV1 ovarian
HOP-92 NSCLC = system: HOP-92 NSCLC
T-47D breast = system: T-47D breast
HS 578T breast = system: HS 578T breast
ACHN renal = system: ACHN renal
KM12 colon = system: KM12 colon
HCT-116 colon = system: HCT-116 colon
NCI-H226 lung = system: NCI-H226 lung
COLO 205 colon = system: COLO 205 colon
M14 melanoma = system: M14 melanoma
SR leukemia = system: SR leukemia
TK-10 renal = system: TK-10 renal
BT-549 breast = system: BT-549 breast
UACC-257 melanoma = system: UACC-257 melanoma
MALME-3M melanoma = system: MALME-3M melanoma
SK-MEL-2 melanoma = system: SK-MEL-2 melanoma
UACC-62 melanoma = system: UACC-62 melanoma
MOLT-4 leukemia = system: MOLT-4 leukemia
SK-MEL-28 melanoma = system: SK-MEL-28 melanoma
MCF7 breast = system: MCF7 breast
HL-60(TB) leukemia = system: HL-60(TB) leukemia
K-562 leukemia = system: K-562 leukemia
HCT-15 colon = system: HCT-15 colon
SN12C renal = system: SN12C renal
MDA-MB-231 breast = system: MDA-MB-231 breast
DU-145 prostate = system: DU-145 prostate
PC-3 prostate = system: PC-3 prostate
A498 renal = system: A498 renal
OVCAR-4 ovarian = system: OVCAR-4 ovarian
SNB-75 CNS = system: SNB-75 CNS
MDA-MB-435 = system: MDA-MB-435
SK-OV-3 ovarian = system: SK-OV-3 ovarian
SF-295 CNS = system: SF-295 CNS
SF-539 CNS = system: SF-539 CNS
EKVX NSCLC = system: EKVX NSCLC

N#Cc1c(-c2cccs2)cc(-c2cnccn2)nc1SCC(=O)N/N=C/c1ccccc1
GI50 (SK-MEL-5 melanoma): 3.52 µM
TGI (SK-MEL-5 melanoma): 13 µM
GI50 (786-0 renal): 3.64 µM
TGI (786-0 renal): 14.4 µM
GI50 (OVCAR-3 ovarian): 3.88 µM
TGI (OVCAR-3 ovarian): 12.3 µM
GI50 (OVCAR-8 ovarian): 6.01 µM
TGI (OVCAR-8 ovarian): 19.4 µM
GI50 (NCI-H522 lung): 10.3 µM
TGI (NCI-H522 lung): 23.9 µM
GI50 (HCC-2998 colon): 10.7 µM
TGI (HCC-2998 colon): 25.1 µM
GI50 (UO-31 renal): 6.1 µM
TGI (UO-31 renal): 19.6 µM
GI50 (HT29 colon): 4.98 µM
TGI (HT29 colon): 21.3 µM
GI50 (CCRF-CEM leukemia): 49.9 µM
TGI (CCRF-CEM leukemia): > 100 µM
GI50 (NCI-H460 lung): 3.93 µM
TGI (NCI-H460 lung): 13.3 µM
GI50 (CAKI-1 renal): 3.66 µM
TGI (CAKI-1 renal): 14.1 µM
GI50 (A549 NSCLC): 5.66 µM
TGI (A549 NSCLC): 20.2 µM
GI50 (RXF 393 renal): 2.5 µM
TGI (RXF 393 renal): 6.97 µM
GI50 (OVCAR-5 ovarian): 10.4 µM
TGI (OVCAR-5 ovarian): 23.3 µM
GI50 (SNB-19 CNS): 7.21 µM
TGI (SNB-19 CNS): 19.8 µM
GI50 (LOX IMVI melanoma): 2.8 µM
TGI (LOX IMVI melanoma): 10 µM
GI50 (RPMI-8226 leukemia): 3.46 µM
TGI (RPMI-8226 leukemia): 20.9 µM
GI50 (HOP-62 NSCLC): 3.2 µM
TGI (HOP-62 NSCLC): 11 µM
GI50 (SF-268 CNS): 10.3 µM
TGI (SF-268 CNS): 24.6 µM
GI50 (U251 CNS): 3.43 µM
TGI (U251 CNS): 12.1 µM
GI50 (NCI/ADR-RES ovarian): 4.95 µM
TGI (NCI/ADR-RES ovarian): 16.7 µM
GI50 (SW-620 colon): 4.97 µM
TGI (SW-620 colon): 20.2 µM
GI50 (IGROV1 ovarian): 5.09 µM
TGI (IGROV1 ovarian): 17.3 µM
GI50 (HOP-92 NSCLC): 2.26 µM
TGI (HOP-92 NSCLC): 8.49 µM
GI50 (T-47D breast): 2.94 µM
TGI (T-47D breast): 15.7 µM
GI50 (HS 578T breast): 6.77 µM
TGI (HS 578T breast): 31.8 µM
GI50 (ACHN renal): 6.14 µM
TGI (ACHN renal): 18.7 µM
GI50 (KM12 colon): 9.18 µM
TGI (KM12 colon): > 100 µM
GI50 (HCT-116 colon): 5.14 µM
TGI (HCT-116 colon): 17.3 µM
GI50 (NCI-H226 lung): 3.41 µM
TGI (NCI-H226 lung): 12.9 µM
GI50 (COLO 205 colon): 11.3 µM
TGI (COLO 205 colon): > 100 µM
GI50 (M14 melanoma): 4.98 µM
TGI (M14 melanoma): 16.4 µM
GI50 (SR leukemia): 11.2 µM
TGI (SR leukemia): 35.8 µM
GI50 (TK-10 renal): 4.51 µM
TGI (TK-10 renal): 15.3 µM
GI50 (BT-549 breast): 8.31 µM
TGI (BT-549 breast): 20.7 µM
GI50 (UACC-257 melanoma): 15.1 µM
TGI (UACC-257 melanoma): 48.6 µM
GI50 (MALME-3M melanoma): 3.33 µM
TGI (MALME-3M melanoma): 9.49 µM
GI50 (SK-MEL-2 melanoma): 10.3 µM
TGI (SK-MEL-2 melanoma): 23 µM
GI50 (UACC-62 melanoma): 8.67 µM
TGI (UACC-62 melanoma): 21 µM
GI50 (MOLT-4 leukemia): 47 µM
TGI (MOLT-4 leukemia): > 100 µM
GI50 (SK-MEL-28 melanoma): 4.06 µM
TGI (SK-MEL-28 melanoma): 14.5 µM
GI50 (MCF7 breast): 3.52 µM
TGI (MCF7 breast): 14.8 µM
GI50 (HL-60(TB) leukemia): > 100 µM
TGI (HL-60(TB) leukemia): > 100 µM
GI50 (K-562 leukemia): 10.8 µM
TGI (K-562 leukemia): > 100 µM
GI50 (HCT-15 colon): 6.88 µM
TGI (HCT-15 colon): 27.4 µM
GI50 (SN12C renal): 6.15 µM
TGI (SN12C renal): 18.8 µM
GI50 (MDA-MB-231 breast): 4.23 µM
TGI (MDA-MB-231 breast): 15.1 µM
GI50 (DU-145 prostate): 3.86 µM
TGI (DU-145 prostate): 12.7 µM
GI50 (PC-3 prostate): 6.29 µM
TGI (PC-3 prostate): 19.2 µM
GI50 (A498 renal): 4.46 µM
TGI (A498 renal): 17.3 µM
GI50 (OVCAR-4 ovarian): 3.61 µM
TGI (OVCAR-4 ovarian): 15.3 µM
GI50 (SNB-75 CNS): 3.3 µM
TGI (SNB-75 CNS): 18.5 µM
GI50 (MDA-MB-435): 4.49 µM
TGI (MDA-MB-435): 16.2 µM
GI50 (SK-OV-3 ovarian): 14.7 µM
TGI (SK-OV-3 ovarian): 27.9 µM
GI50 (SF-295 CNS): 4.92 µM
TGI (SF-295 CNS): 17.1 µM
GI50 (SF-539 CNS): 6.64 µM
TGI (SF-539 CNS): 19.3 µM
GI50 (EKVX NSCLC): 6.48 µM
TGI (EKVX NSCLC): 19.4 µM
